Where “and” joins values, the source holds several entries; their conditions need not be identical. Equal values may be shown once. Read-outs that look alike come from different tables or passages of the source.
Legend:
[1] = target: Transporter, Dopamine (DAT) (Homo sapiens, UniProt Q01959); assay: DAT radioligand binding ([125I] RTI-55), Eurofins; settings: read-out: DAT, % inhibition, 10 nM compound
Procedure: Source: Human recombinant CHO—S cells;
Incubation Time/Temp: 3 hours @ 4° C.;
(§3) Incubation Buffer: 50 mM Tris-HCl, pH 7.4, 100 mM NaCl, 1 μM Leupeptin, 10 μM PMSF;
Non-Specific Ligand: 10.0 μM Nomifensine;
Specific Binding: 90% (Historical Values);
(§4) Quantitation Method: Radioligand Binding;

[2] = target: Transporter, Norepinephrine (NET) (Homo sapiens, UniProt P23975); assay: NET radioligand binding ([125I] RTI-55), Eurofins; settings: read-out: NET, % inhibition, 10 nM compound
Procedure: Source: Human recombinant MDCK cells;
Incubation Time/Temp: 3 hours @ 4° C.;
as §3
Non-Specific Ligand: 10.0 μM Desipramine;
as §4

[3] = target: T1, serotonin transporters (SERT) (Homo sapiens, UniProt P31645); assay: PET study of SERT occupancy with 11C-MADAM in healthy male volunteers; assay type: in vivo; settings: read-out: SERT RO %; for receptor occupancy at 10 mg: 10 mg once a day; for receptor occupancy at 30 mg: 30 mg once a day; for receptor occupancy at 45 mg: 45 mg once a day (30 mg for 3 days first); for receptor occupancy at 60 mg: 60 mg once a day (30 mg for 3 days first)
T1 construct: evaluate in healthy male volunteers with respect to safety, tolerability and pharmacokinetics as well as DAT and SERT occupancy; from tissue; host or cells: living human brain (striatum, thalamus), PET in healthy male volunteers
Excerpt: The PET study was a part of a strategy in previous clinical development of the compound of formula I to evaluate in healthy male volunteers with respect to safety, tolerability and pharmacokinetics as well as DAT and SERT occupancy.
The relationship between plasma the compound of formula I concentration and SERT occupancies, using the individual values, is presented in FIG. 8 and FIG. 9. The numeric values for the individual SERT and […] occupancy and the corresponding plasma concentrations are tabulated in Example 12.
(§1) Striatal receptor occupancy at dopamine transporters (DAT) and serotonin transporters (SERT) with plasma concentrations of Formula I at the midpoint time of the post dosing PET (positron emission tomography) scans (T=4 and 24) after once-a-day multiple doses of 3-60 mg and 10-60 mg for SERT and DAT healthy male cohorts, respectively (Tables below, RO stands for receptor occupancy). Post dosing PET scans were conducted at day 10 (4 h post last dose) and day 14 (24 h post last dose) assuming steady state conditions, using the specific DAT and SERT tracers ^11C-PE2I and ^11C-MADAM, respectively. For 45 mg and 60 mg cohorts, there was titration by administration of 30 mg for 3 days and then from day 4 the specified dose. Representative reports on using these two tracers are Leamed-Coughlin S M et al, Biol Psychiatry. 2003, 54(8):800-5; Jucaite A et al, Eur J Nucl Med Mol Imaging. 2006, 33(6):657-68; and Lundberg J et al, Int J Neuropsychopharmacol. 2007, 10(6):777-85.

[4] = Stability of Formula I in human EDTA plasma (LC-MS/MS validation); assay type: in vitro ADME
Procedure: (§2) A LC-MS/MS method was developed and validated for the quantitation of Formula I in 0.250 mL of human EDTA plasma in a total of 7 runs, out of which 1 run was rejected. The method utilized stable labeled Formula I as an internal standard. After the addition of the internal standard (equivalent to 285.4 ng/mL in human EDTA plasma) and 0.250 mL of each quality control (QC) sample and calibration standard, 0.525 mL of methyl t-butyl ether (MTBE) was added to the 96-well sample tubes. The organic layer was removed and evaporated to dryness using a liquid-liquid extraction (LLE). The residue was reconstituted and injected into the LC-MS/MS system. Chromatographic separation was achieved through gradient elution on an Acquity UPLC, BEH Shield RP18™, 50×2.1 mm, 1.7 μm particle size column. The mobile phase contained water, acetonitrile, ammonium formate, and formic acid. Detection was accomplished using a Sciex API 4000 tandem mass spectrometer in positive ion electrospray SRM mode. The standard curves, which ranged from 1.00 to 1000 ng/mL for Formula I, were fitted to a 1/×2 weighted linear regression model. The intra-assay precisions, based on four levels of analytical QCs (low, mid, GM, and high), were within 4.2% CV and inter-assay precisions were within 7.2% CV for the analyte. The assay accuracy, expressed as % DEV, was within 6.4% of the nominal concentration values for the analyte. […] The LLOQ response ratio, when compared to the QCO response ratio, was >, 5 in all matrix lots. The analyte was stable in human EDTA plasma for at least 24 h at room temperature, for at least 14 days at −20° C., and following at least 3 freeze-thaw cycles. The processed samples were stable for 72 hours (h) at room temperature.

[5] = Plasma concentration of Formula I at midpoint time of post dosing PET scans; assay type: in vivo; settings: male, human; for concentration at 24 h: day 14, 24 h post last dose
Excerpt: In alternative embodiments, provided are methods comprising administering a drug in an amount sufficient to achieve a therapeutic level range of plasma concentration (optionally human plasma concentration) at a steady state, and this example describes an exemplary analytical method to determine the concentration of Formula I in human plasma using an LC-MS-MS method known to the people skilled in the art, and an exemplary bioanalysis method to determine the concentration of formula I in human EDTA plasma.
as §2, §1

[6] = target: T2, dopamine transporters (DAT) (Homo sapiens, UniProt Q01959); assay: PET study of striatal DAT occupancy with 11C-PE2I in healthy male volunteers; assay type: in vivo
T2 construct: evaluate in healthy male volunteers with respect to safety, tolerability and pharmacokinetics as well as DAT and SERT occupancy; from tissue; host or cells: living human brain (striatum), PET in healthy male volunteers
Excerpt: The PET study was a part of a strategy in previous clinical development of the compound of formula I to evaluate in healthy male volunteers with respect to safety, tolerability and pharmacokinetics as well as DAT and SERT occupancy. […]
as §1

[7] = 24 h, day 14, 24 h post last dose

T1 sequence (P31645 whole entry): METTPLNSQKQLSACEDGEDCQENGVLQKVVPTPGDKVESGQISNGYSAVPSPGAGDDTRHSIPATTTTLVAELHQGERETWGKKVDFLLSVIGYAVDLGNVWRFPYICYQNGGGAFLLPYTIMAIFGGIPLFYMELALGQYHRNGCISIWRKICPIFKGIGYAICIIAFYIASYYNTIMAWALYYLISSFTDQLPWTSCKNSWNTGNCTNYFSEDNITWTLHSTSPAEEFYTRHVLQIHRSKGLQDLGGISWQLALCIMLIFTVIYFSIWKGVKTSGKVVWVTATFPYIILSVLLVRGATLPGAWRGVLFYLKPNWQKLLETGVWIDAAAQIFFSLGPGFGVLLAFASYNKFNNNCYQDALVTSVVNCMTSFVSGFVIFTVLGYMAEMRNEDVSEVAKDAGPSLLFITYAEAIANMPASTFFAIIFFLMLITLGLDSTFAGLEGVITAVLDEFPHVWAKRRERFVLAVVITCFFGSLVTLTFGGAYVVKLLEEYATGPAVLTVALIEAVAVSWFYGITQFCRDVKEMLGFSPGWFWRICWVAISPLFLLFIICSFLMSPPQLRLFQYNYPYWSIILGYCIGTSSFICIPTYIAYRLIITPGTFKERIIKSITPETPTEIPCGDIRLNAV
T2 sequence (Q01959 whole entry): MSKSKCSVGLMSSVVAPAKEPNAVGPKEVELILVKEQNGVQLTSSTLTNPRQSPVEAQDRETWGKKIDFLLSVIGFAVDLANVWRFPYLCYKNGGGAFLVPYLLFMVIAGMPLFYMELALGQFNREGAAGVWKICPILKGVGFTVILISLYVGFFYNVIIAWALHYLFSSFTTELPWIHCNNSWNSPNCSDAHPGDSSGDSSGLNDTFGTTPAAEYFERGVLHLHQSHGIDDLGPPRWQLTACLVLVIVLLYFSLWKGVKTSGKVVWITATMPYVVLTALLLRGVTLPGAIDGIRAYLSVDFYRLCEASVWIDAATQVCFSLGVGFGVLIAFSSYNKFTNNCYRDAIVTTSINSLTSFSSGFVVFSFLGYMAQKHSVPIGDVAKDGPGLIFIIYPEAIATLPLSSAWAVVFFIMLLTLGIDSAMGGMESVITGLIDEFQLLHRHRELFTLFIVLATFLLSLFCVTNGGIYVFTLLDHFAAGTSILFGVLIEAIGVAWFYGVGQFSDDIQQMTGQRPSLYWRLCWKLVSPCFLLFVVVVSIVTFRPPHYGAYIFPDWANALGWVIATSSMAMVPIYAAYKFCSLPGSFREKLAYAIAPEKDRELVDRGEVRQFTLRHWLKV
Transporter, Norepinephrine (NET), sequence (P23975 whole entry): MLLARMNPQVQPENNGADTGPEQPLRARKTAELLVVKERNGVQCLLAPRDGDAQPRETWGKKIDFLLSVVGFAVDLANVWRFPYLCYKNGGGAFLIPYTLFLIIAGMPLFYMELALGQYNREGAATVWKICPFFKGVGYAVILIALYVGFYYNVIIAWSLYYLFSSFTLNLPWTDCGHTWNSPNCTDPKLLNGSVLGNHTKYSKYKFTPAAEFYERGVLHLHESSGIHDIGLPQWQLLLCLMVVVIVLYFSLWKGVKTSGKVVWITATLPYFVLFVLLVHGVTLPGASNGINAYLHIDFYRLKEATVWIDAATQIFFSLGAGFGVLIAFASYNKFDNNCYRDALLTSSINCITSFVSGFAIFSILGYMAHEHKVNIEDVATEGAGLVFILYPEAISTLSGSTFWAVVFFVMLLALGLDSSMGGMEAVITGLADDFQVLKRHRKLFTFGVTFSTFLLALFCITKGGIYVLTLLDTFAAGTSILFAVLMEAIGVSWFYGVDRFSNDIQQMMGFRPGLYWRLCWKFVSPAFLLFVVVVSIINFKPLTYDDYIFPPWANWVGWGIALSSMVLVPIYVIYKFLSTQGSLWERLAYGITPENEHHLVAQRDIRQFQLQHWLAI
Transporter, Dopamine (DAT), sequence (Q01959 whole entry): as the sequence (Q01959 whole entry) above

Structure (SMILES): Clc1ccc(C2CNCc3cc(-c4ccc5ncnn5c4)ccc32)cc1Cl (centres unmarked) [Formula I, 7-([1,2,4]triazolo[1,5-a]pyridin-6-yl)-4-(3,4-dichlorophenyl)-1,2,3,4-tetrahydroisoquinoline]
- inhibition at 0.01 µM [1]: 47%
- inhibition at 0.01 µM [2]: 35%
- receptor occupancy at 10 mg ([3]; 4 h, day 10, 4 h post dose): 53%
- receptor occupancy at 30 mg ([3]; 4 h, day 10, 4 h post dose): 71%
- receptor occupancy at 45 mg ([3]; 4 h, day 10, 4 h post dose): 73%
- receptor occupancy at 60 mg ([3]; 4 h, day 10, 4 h post dose): 70%
- receptor occupancy at 10 mg [3, 7]: 47%
- receptor occupancy at 30 mg [3, 7]: 69%
- receptor occupancy at 45 mg [3, 7]: 73%
- receptor occupancy at 60 mg [3, 7]: 76%
- stable in human EDTA plasma ([4]; freeze-thaw): at least 3 freeze-thaw cycles
- stable in human EDTA plasma ([4]; room temperature): at least 24 h
- stable in human EDTA plasma ([4]; −20° C.): at least 14 days
- concentration at 4 h ([5]; 3 mg, SERT cohort, 3 mg once a day, day 10, 4 h post dose): 68 ng/mL
- concentration at 24 h ([5]; 3 mg, SERT cohort, 3 mg once a day): 52 ng/mL
- concentration at 4 h ([5]; 10 mg, DAT cohort, 10 mg once a day, day 10, 4 h post dose): 204 ng/mL
- concentration at 24 h ([5]; 10 mg, DAT cohort, 10 mg once a day): 141 ng/mL
- concentration at 4 h ([5]; 10 mg, SERT cohort, 10 mg once a day, day 10, 4 h post dose): 201 ng/mL
- concentration at 24 h ([5]; 10 mg, SERT cohort, 10 mg once a day): 127 ng/mL
- concentration at 4 h ([5]; 30 mg, SERT cohort, 30 mg once a day, day 10, 4 h post dose): 691 ng/mL
- concentration at 24 h ([5]; 30 mg, SERT cohort, 30 mg once a day): 668 ng/mL
- concentration at 4 h ([5]; 45 mg, DAT cohort, 45 mg once a day (30 mg for 3 days first), day 10, 4 h post dose): 809 ng/mL
- concentration at 24 h ([5]; 45 mg, DAT cohort, 45 mg once a day (30 mg for 3 days first)): 647 ng/mL
- concentration at 4 h ([5]; 45 mg, SERT cohort, 45 mg once a day (30 mg for 3 days first), day 10, 4 h post dose): 1160 ng/mL
- concentration at 24 h ([5]; 45 mg, SERT cohort, 45 mg once a day (30 mg for 3 days first)): 940 ng/mL
- concentration at 4 h ([5]; 60 mg, DAT cohort, 60 mg once a day (30 mg for 3 days first), day 10 (subject 77: day 11), 4 h post dose): 1340 ng/mL
- concentration at 24 h ([5]; 60 mg, DAT cohort, 60 mg once a day (30 mg for 3 days first)): 920 ng/mL
- DAT RO % ([6]; 10 mg once a day, day 10, 4 h post dose): 12% and 21% and 18%
- DAT RO % ([6]; 30 mg once a day, day 10, 4 h post dose): 22% and 43% and 36%
- DAT RO % ([6]; 30 mg once a day, day 14, 24 h post last dose): 26% and 23% and 43%
- DAT RO % ([6]; 45 mg once a day (30 mg for 3 days first), day 10, 4 h post dose): 42% and 44% and 48%
- DAT RO % ([6]; 45 mg once a day (30 mg for 3 days first), day 14, 24 h post last dose): 36% and 41% and 43%
- DAT RO % ([6]; 60 mg once a day (30 mg for 3 days first), day 10 (subject 77: day 11), 4 h post dose): 60% and 59%
- DAT RO % ([6]; 60 mg once a day (30 mg for 3 days first), day 14, 24 h post last dose): 48% and 49%
- DAT occupancy ([6]; following multiple doses of 60 mg): up to 60%

Source: US20230002377A1, “THERAPEUTIC COMBINATIONS OF DRUGS AND METHODS OF USING THEM” (HARMONY BIOSCIENCES, LLC, priority 2020, published 2023)
